PMC10107164 (2022)

Columns and labels:
[1] = tested on: Kit1 (DNA, G4) AGGGAGGGCGCTGGGAGGAGGG; experiment: fluorimetric titration (ligand emission); details: 100 mM KCl; 10 mM Tris, pH 7.4; 1:1 binding model
[2] = tested on: cMyc (DNA, G4) TGAGGGTGGGTAGGGTGGGTAA; experiment: thiazole orange displacement (FID); details: 100 mM KCl; 10 mM LiCaco, pH 7.2; 1 μM DNA, 2 μM thiazole orange displaced
[3] = tested on: Bcl2 (DNA, G4) GGGCGCGGGAGGAATTGGGCGGG; experiment: fluorimetric titration (ligand emission); details: 100 mM KCl; 10 mM Tris, pH 7.4; 1:1 binding model
[4] = tested on: ds26 (DNA, duplex) CAATCGGATCGAATTCGATCCGATTG; experiment: thiazole orange displacement (FID); details: 100 mM KCl; 10 mM LiCaco, pH 7.2; 1 μM DNA, 3 μM thiazole orange displaced
[5] = tested on: Kit1 (DNA, G4) AGGGAGGGCGCTGGGAGGAGGG; experiment: thiazole orange displacement (FID); details: 100 mM KCl; 10 mM LiCaco, pH 7.2; 1 μM DNA, 2 μM thiazole orange displaced
[6] = tested on: HTelo (HTelo22) (DNA, G4) AGGGTTAGGGTTAGGGTTAGGG; experiment: thiazole orange displacement (FID); details: 100 mM KCl; 10 mM LiCaco, pH 7.2; 1 μM DNA, 2 μM thiazole orange displaced
[7] = tested on: HTelo (HTelo22) (DNA, G4) AGGGTTAGGGTTAGGGTTAGGG; experiment: fluorimetric titration (ligand emission); details: 100 mM KCl; 10 mM Tris, pH 7.4; 1:1 binding model
[8] = tested on: cMyc (DNA, G4) TGAGGGTGGGTAGGGTGGGTAA; experiment: fluorimetric titration (ligand emission); details: 100 mM KCl; 10 mM Tris, pH 7.4; 1:1 binding model
[9] = tested on: ds26 (DNA, duplex) CAATCGGATCGAATTCGATCCGATTG; experiment: fluorimetric titration (ligand emission); details: 100 mM KCl; 10 mM Tris, pH 7.4; 1:1 binding model
[10] = tested on: F21T-RNA (RNA, G4) GGGUUAGGGUUAGGGUUAGGG; experiment: FRET melting; details: 100 mM KCl; 10 mM LiCac, pH 7.3; 0.2 μM DNA, 2 μM compound (1:10)
[11] = tested on: TBA (labelled) (DNA, G4) GGTTGGTGTGGTTGG; experiment: FRET melting; details: 100 mM KCl; 10 mM LiCac, pH 7.3; 0.2 μM DNA, 1 μM compound (1:5)
[12] = tested on: ds26 (labelled) (DNA, duplex) CAATCGGATCGAATTCGATCCGATTG; experiment: FRET melting; details: 100 mM KCl; 10 mM LiCac, pH 7.3; 0.2 μM DNA, 2 μM compound (1:10)
[13] = tested on: 26TTA (labelled) (DNA, G4) TTAGGGTTAGGGTTAGGGTTAGGGTT; experiment: FRET melting; details: 100 mM KCl; 10 mM LiCac, pH 7.3; 0.2 μM DNA, 2 μM compound (1:10)
[14] = tested on: Kit2 (labelled) (DNA, G4) CGGGCGGGCGCGAGGGAGGGG; experiment: FRET melting; details: 100 mM KCl; 10 mM LiCac, pH 7.3; 0.2 μM DNA, 2 μM compound (1:10)
[15] = tested on: HTelo (F21T-K / F21T-Na) (DNA, G4) GGGTTAGGGTTAGGGTTAGGG; experiment: FRET melting; details: 10 mM LiCac, pH 7.3, 0.2 μM DNA, 2 μM compound (1:10)
[16] = tested on: Kit1 (labelled) (DNA, G4) AGGGAGGGCGCTGGGAGGAGGG; experiment: FRET melting; details: 100 mM KCl; 10 mM LiCac, pH 7.3; 0.2 μM DNA, 2 μM compound (1:10)
[17] = tested on: 24TTG (labelled) (DNA, G4) TTGGGTTAGGGTTAGGGTTAGGGA; experiment: FRET melting; details: 100 mM KCl; 10 mM LiCac, pH 7.3; 0.2 μM DNA, 2 μM compound (1:10)
[18] = tested on: Bcl2 (labelled) (DNA, G4) GGGCGCGGGAGGAATTGGGCGGG; experiment: FRET melting; details: 100 mM KCl; 10 mM LiCac, pH 7.3; 0.2 μM DNA, 2 μM compound (1:10)

| SMILES | Ka [1] | DC50 [2] | Ka [3] | DC50 [4] | DC50 [5] | DC50 [6] | Ka [7] | Ka [8] | Ka [9] | ΔTm [10] | ΔTm [11] | binding [12] | ΔTm [13] | ΔTm [14] | ΔTm ([15]; 100 mM KCl) | ΔTm ([15]; 100 mM NaCl) | ΔTm [16] | ΔTm [17] | ΔTm [18] |
| --- | --- | --- | --- | --- | --- | --- | --- | --- | --- | --- | --- | --- | --- | --- | --- | --- | --- | --- | --- |
| O=S(=O)(O)CCCCOc1ccc(N(c2ccc(OCCCCS(=O)(=O)O)cc2)c2ccc(-c3ccc4c(c3)C3(c5ccccc5-c5ccccc53)c3cc(-c5ccc(N(c6ccc(OCCCCS(=O)(=O)O)cc6)c6ccc(OCCCCS(=O)(=O)O)cc6)cc5)ccc3-4)cc2)cc1 | < 10^3 M^-1 | > 5 µM | 5.5(0.3)x10^4 M^-1 | 3.52 µM | > 5 µM | > 5 µM | 7.2(2)x10^4 M^-1 | 5.6(0.1)x10^4 M^-1 | < 10^3 M^-1 |  |  |  |  |  |  |  |  |  |  |
| C[N+](C)(C)CCCOc1ccc(N(c2ccc(OCCC[N+](C)(C)C)cc2)c2ccc(-c3ccc4c(c3)C3(c5ccccc5-c5ccccc53)c3cc(-c5ccc(N(c6ccc(OCCC[N+](C)(C)C)cc6)c6ccc(OCCC[N+](C)(C)C)cc6)cc5)ccc3-4)cc2)cc1 | 4.0(0.4)x10^5 M^-1 | 2.84 µM | 5.4(0.5)x10^5 M^-1 | > 5 µM | 3.00 µM | > 5 µM | > 10^7 M^-1 | 4.5(0.8)x10^5 M^-1 | 3.5(0.5)x10^5 M^-1 | > 26.5 °C | 19.4 °C | no | < 12 °C | 27.9 °C | > 35 °C | 24.8 °C | > 35 °C | < 12 °C | 30.5 °C |
